Where two headings read alike, the source gives them in different places.
Columns and labels:
[1] = target: single-chain tethered dimer of HIV protease (Human immunodeficiency virus 1, UniProt P04585); experiment: biochemical; format: biochemical
Method: HIV Protease Inhibition Assay—HPLC Method
Active protease was prepared as described therein by extraction with 67% acetic acid, dilution 33-fold with water, dialysis against water and then against a “refolding buffer” consisting of 20 mM MES, 1 mM dithiothreitol and 10% glycerol. Protease was stored as a stock preparation at 10 uM in refolding buffer.
Substrate: Peptide of sequence: aminobenzoyl-Ala-Thr-His-Gln-Val-Tyr-Phe(NO2)-Val-Arg-Lys-Ala containing p-nitrophenylalanine, was prepared by solid phase synthesis as previously described Cheng et al., op.cit. Stock solutions of 2 mM substrate were prepared in DMSO.
Inhibitory compounds were dissolved in sufficient DMSO to make 3 mM stock solutions. All further dilutions were prepared in “assay buffer”: 1M NaCl, 50 mM MES, pH 5.5, 1 mM EDTA, 1 mM DTT, […] glycerol.
Enzyme reaction: In a 2 ml screw-cap centrifuge tube were added 50 ul protease (final concentration 0.25 nM) and 0.1 ml inhibitory compound (final concentration […]). After 15 min preincubation at room temperature, the reaction was started with the addition of 0.05 ml substrate (final concentration 5 uM). Incubation was carried out at 30 C. for 1 hr. The reaction was stopped with 1 ml 0.1M ammonium hydroxide.
HPLC measurement of product formation: The product (aminobenzoyl-Ala-Thr-His-Gln-Val-Tyr) was separated from substrate on a Pharmacia MonoQ anion exchange column. The injection volume was 0.2 ml. The mobile phases were: A (20 mM trisHCl, pH 9.0, 0.02% sodium Azide, 10% acetonitrile), B (20 mM tris HCl, pH 9.0, 0.02% sodium azide, 0.5M ammonium formate, 10% acetonitrile). The mobile phases were pumped at 1 ml/min, with a gradient from 0 to 30% B in 5 min, 100% B for 4 min to wash the column, and a re-equilibration for 4 min. The retention time of the product was 3.6 min. Detection with a Shimadzu model RF535 fluorescence monitor was at 330 nm (excitation) and 430 (emission).

HIV-1 (RF) in MT-2 cells = experiment: microbe, parasite or virus in culture; format: cell-based; conditions: HIV-1 infected MT-2 cells, class symbols
How it was run: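 HIV-1 laboratory strains (RF, MN, IIIB) grown in H9 cells in RPMI 1640 with 5% FCS; infections in MT-2 cells. Viral RNA quantified by hybridization with biotinylated gag/pol capture probes on streptavidin plates and alkaline phosphatase-conjugated reporter probes; BH10 gag-pol in vitro transcripts serve as RNA standards.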

[2] = HIV protease inhibition, class symbols, read-out: Ki
[3] = Human immunodeficiency virus 1, MT2, HIV RNA assay, read-out: IC90

SMILES | Ki [1, 2] [nM] | IC90 (HIV-1 (RF) in MT-2 cells; HIV RNA assay) | Ki [1] [nM] | IC90 (HIV-1 (RF) in MT-2 cells; [3]) [µg/mL] | melting point [°C]
CN(C)CCN1C(=O)N(CCN(C)C)C(Cc2ccccc2)C(O)C(O)C1Cc1ccccc1 (stereo not shown) [Example 6N] | > 1000 | + (+=>100 μg/mL) |  |  | 
C=CCN1C(=O)N(Cc2ccc3ccccc3n2)C(Cc2ccccc2)C(O)C(O)C1Cc1ccccc1 (stereo not shown) [Example 5D] | < 10 | +++ (+++=<10 μg/mL) |  |  | 
O=C1N(Cc2cccnc2)C(Cc2ccccc2)C(O)C(O)C(Cc2ccccc2)N1Cc1cccnc1 (stereo not shown) [Example 5O] |  |  | < 10 | < 10 | 
O=C1NC(Cc2ccccc2)C(O)C(O)C(Cc2ccccc2)N1Cc1cccc([N+](=O)[O-])c1 (stereo not shown) [Example 6ZL] |  |  | < 10 | < 10 | 
COC(=O)c1cccc(CN2C(=O)N(Cc3cccc(C(=O)OC)c3)C(Cc3ccccc3)C(O)C(O)C2Cc2ccccc2)c1 (stereo not shown) [Example 5T] |  |  | < 10 | < 10 | 
Cc1ccc(CN2C(=O)N(Cc3ccc(C)cc3)C(Cc3ccccc3)C(O)C(O)C2Cc2ccccc2)cc1 (stereo not shown) [Example 6T] |  |  | < 10 | < 10 | 
O=C1N(Cc2ccc(Br)cc2)C(Cc2ccccc2)C(O)C(O)C(Cc2ccccc2)N1Cc1ccc(Br)cc1 (stereo not shown) [Example 6ZG] |  |  | 10 to 1000 | < 10 | 
O=C1N(Cc2ccc(-c3ccccc3)cc2)C(Cc2ccccc2)C(O)C(O)C(Cc2ccccc2)N1Cc1ccc(-c2ccccc2)cc1 (stereo not shown) [Example 4R] |  |  | 10 to 1000 |  | 109 to 110
C=CCN1C(=O)N(CC2CC2)C(Cc2ccccc2)C(O)C(O)C1Cc1ccccc1 (stereo not shown) [Example 3W] | < 10 | +++ (+++=<10 μg/mL) |  |  | 
O=C1N(Cc2ccc(F)cc2)C(Cc2ccccc2)C(O)C(O)C(Cc2ccccc2)N1CC1CC1 (stereo not shown) [Example 6V] | < 10 | +++ (+++=<10 μg/mL) |  |  | 
CCCN1C(=O)N(Cc2ccc3ccccc3c2)C(Cc2ccccc2)C(O)C(O)C1Cc1ccccc1 (stereo not shown) [Example 4T] | < 10 | +++ (+++=<10 μg/mL) |  |  | 
CC(C)N1C(=O)N(Cc2ccccn2)C(Cc2ccccc2)C(O)C(O)C1Cc1ccccc1 (stereo not shown) [Example 6L] |  |  | 10 to 1000 | < 10 | 
O=C1N(CC2CCCC2)C(Cc2ccccc2)C(O)C(O)C(Cc2ccccc2)N1CC1CC1 (stereo not shown) [Example 4F] |  |  | < 10 | < 10 | 
C=CCN1C(=O)N(Cc2ccncc2)C(Cc2ccccc2)C(O)C(O)C1Cc1ccccc1 (stereo not shown) [Example 5E] |  |  | 10 to 1000 | < 10 | 
O=C1N(Cc2ccc(Cl)cc2)C(Cc2ccccc2)C(O)C(O)C(Cc2ccccc2)N1Cc1ccc(Cl)cc1 (stereo not shown) [Example 6U] |  |  | < 10 | < 10 | 
O=C1N(Cc2cn(Cc3ccccc3)cn2)C(Cc2ccccc2)C(O)C(O)C(Cc2ccccc2)N1Cc1cn(Cc2ccccc2)cn1 (stereo not shown) [Example 6ZP] | > 1000 | ++ (++=10 to 100 μg/mL) |  |  | 
O=C1N(Cc2ccc(F)c(F)c2)C(Cc2ccccc2)C(O)C(O)C(Cc2ccccc2)N1Cc1ccc(F)c(F)c1 (stereo not shown) [Example 6S] |  |  | < 10 | < 10 | 
O=C1N(Cc2ccc(O)cc2)C(Cc2ccccc2)C(O)C(O)C(Cc2ccccc2)N1CC1CC1 (stereo not shown) [Example 6E] | < 10 | +++ (+++=<10 μg/mL) |  |  | 
CCCCN1C(=O)N(CC2CCCC2)C(Cc2ccccc2)C(O)C(O)C1Cc1ccccc1 (stereo not shown) [Example 6J] |  |  | < 10 | < 10 | 
O=C1NC(Cc2ccccc2)C(O)C(O)C(Cc2ccccc2)N1Cc1ccccc1 (stereo not shown) [Example 6o] |  |  | < 10 | < 10 | 
CC(C)N1C(=O)N(Cc2ccc(O)cc2)C(Cc2ccccc2)C(O)C(O)C1Cc1ccccc1 (stereo not shown) [Example 5Y] | < 10 | +++ (+++=<10 μg/mL) |  |  | 
O=C1N(Cc2ccccc2)C(Cc2ccccc2)C(O)C(O)C(Cc2ccccc2)N1Cc1ccc2ccccc2n1 (stereo not shown) [Example 4O] |  |  | 10 to 1000 | < 10 | 
O=C1N(Cc2ccc3ccccc3c2)C(Cc2ccccc2)C(O)C(O)C(Cc2ccccc2)N1Cc1ccc2ccccc2c1 (stereo not shown) [Example 3U] |  |  | < 10 | < 10 | 

— patent USRE37781E1, “Substituted cyclic carbonyls and derivatives thereof useful as retroviral protease inhibitors” (DuPont Pharmaceuticals Company, priority 1991, dated 2002)
